The values below come from patent publication US20240269139A1, “COMPOUNDS FOR TARGETED PROTEIN DEGRADATION OF KINASES” (DANA-FARBER CANCER INSTITUTE, INC., priority 2020, published 2024).

Molecules are shown by their SMILES. Where two headings read alike, the source gives them in different places.

Holding throughout (format): cell-based
In experiment [1] the target is protein kinases (human kinome) (Homo sapiens, UniProt Q5S007). The note with it: for logFC: LRRK2 (Q5S007).
Experiment [2] addresses T1, protein kinases (human kinome) (Homo sapiens, UniProt Q8TBX8).
T1 sequence (Q8TBX8 1-421): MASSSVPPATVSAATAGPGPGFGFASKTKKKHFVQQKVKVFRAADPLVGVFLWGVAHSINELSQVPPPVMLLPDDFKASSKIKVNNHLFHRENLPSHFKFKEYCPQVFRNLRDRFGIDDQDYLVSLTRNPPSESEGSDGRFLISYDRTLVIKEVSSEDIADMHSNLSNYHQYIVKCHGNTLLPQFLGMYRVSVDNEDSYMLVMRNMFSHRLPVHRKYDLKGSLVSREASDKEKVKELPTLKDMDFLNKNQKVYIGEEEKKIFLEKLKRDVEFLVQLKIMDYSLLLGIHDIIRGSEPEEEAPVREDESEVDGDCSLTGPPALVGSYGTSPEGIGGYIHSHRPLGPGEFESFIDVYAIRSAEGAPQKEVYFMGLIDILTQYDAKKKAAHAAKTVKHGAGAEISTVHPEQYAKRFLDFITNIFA
As to conditions: PIP4K2C Q8TBX8-1.

Experiment [3] deals with protein kinases (human kinome) (Homo sapiens, UniProt Q8N165). As to conditions: for logFC of PDIK1L (Q8N165): Experiment wp168; for logFC: PDIK1L (Q8N165), experiment wp168.
For experiment [4], the target named is T2, protein kinases (human kinome) (Homo sapiens, UniProt P21709).
T2 sequence (P21709 26-976): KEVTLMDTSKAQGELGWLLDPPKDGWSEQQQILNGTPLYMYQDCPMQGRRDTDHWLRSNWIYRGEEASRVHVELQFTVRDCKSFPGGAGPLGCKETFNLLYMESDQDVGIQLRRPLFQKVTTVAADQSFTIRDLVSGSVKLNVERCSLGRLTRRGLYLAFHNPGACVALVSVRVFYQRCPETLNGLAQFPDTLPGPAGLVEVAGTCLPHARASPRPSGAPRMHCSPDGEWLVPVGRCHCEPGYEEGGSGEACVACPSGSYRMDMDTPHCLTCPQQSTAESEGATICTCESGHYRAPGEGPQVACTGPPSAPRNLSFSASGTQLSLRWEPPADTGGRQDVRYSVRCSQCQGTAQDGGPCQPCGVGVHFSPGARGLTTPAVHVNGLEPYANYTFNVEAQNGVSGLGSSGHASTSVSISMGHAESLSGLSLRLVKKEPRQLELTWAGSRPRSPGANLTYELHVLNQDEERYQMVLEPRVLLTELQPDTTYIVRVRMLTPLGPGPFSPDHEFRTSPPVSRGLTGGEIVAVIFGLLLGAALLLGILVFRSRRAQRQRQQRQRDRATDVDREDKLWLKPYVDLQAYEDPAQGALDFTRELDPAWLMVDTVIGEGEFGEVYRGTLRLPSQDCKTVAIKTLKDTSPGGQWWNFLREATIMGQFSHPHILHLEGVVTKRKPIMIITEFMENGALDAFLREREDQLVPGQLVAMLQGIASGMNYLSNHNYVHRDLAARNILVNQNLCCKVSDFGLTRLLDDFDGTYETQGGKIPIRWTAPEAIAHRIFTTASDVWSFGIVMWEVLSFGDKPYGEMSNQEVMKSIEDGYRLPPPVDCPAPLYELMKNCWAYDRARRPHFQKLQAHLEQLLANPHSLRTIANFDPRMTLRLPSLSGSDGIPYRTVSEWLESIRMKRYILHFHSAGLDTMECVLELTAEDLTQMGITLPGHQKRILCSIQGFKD
The note with it: for logFC of EPHA1 (P21709): Experiment wp114; for logFC EPHA1: protein EPHA1 (P21709), experiment wp114, direction of change down.

Experiment [5] has as its target protein kinases (human kinome) (Homo sapiens, UniProt Q13882). As to conditions: for logFC PTK6 (Q13882): Experiment wp114, direction of change down; for logFC: PTK6 (Q13882), experiment wp114.
Experiment [6] concerns the target T3, protein kinases (human kinome) (Homo sapiens, UniProt P51955).
T3 sequence (P51955 1-445): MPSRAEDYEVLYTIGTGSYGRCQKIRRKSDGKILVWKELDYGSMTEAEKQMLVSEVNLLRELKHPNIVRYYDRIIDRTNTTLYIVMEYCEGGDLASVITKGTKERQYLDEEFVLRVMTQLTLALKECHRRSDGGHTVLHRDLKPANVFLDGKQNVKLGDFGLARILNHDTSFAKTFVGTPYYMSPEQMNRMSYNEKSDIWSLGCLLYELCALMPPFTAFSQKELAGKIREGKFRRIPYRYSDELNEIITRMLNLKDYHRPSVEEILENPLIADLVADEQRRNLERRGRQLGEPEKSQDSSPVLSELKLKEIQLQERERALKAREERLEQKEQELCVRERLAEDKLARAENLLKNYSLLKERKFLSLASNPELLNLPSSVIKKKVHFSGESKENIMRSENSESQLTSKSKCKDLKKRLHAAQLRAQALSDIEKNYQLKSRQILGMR
The note with it: NEK2 (P51955).

For experiment [7], the target named is protein kinases (human kinome) (Homo sapiens, UniProt Q5TCX8). The note with it: for logFC: MAP3K21 (Q5TCX8); for logFC MAP3K21 (Q5TCX8): direction of change down.
Chain of protein kinases (human kinome) (Homo sapiens, UniProt Q5TCX8) (Q5TCX8 whole entry): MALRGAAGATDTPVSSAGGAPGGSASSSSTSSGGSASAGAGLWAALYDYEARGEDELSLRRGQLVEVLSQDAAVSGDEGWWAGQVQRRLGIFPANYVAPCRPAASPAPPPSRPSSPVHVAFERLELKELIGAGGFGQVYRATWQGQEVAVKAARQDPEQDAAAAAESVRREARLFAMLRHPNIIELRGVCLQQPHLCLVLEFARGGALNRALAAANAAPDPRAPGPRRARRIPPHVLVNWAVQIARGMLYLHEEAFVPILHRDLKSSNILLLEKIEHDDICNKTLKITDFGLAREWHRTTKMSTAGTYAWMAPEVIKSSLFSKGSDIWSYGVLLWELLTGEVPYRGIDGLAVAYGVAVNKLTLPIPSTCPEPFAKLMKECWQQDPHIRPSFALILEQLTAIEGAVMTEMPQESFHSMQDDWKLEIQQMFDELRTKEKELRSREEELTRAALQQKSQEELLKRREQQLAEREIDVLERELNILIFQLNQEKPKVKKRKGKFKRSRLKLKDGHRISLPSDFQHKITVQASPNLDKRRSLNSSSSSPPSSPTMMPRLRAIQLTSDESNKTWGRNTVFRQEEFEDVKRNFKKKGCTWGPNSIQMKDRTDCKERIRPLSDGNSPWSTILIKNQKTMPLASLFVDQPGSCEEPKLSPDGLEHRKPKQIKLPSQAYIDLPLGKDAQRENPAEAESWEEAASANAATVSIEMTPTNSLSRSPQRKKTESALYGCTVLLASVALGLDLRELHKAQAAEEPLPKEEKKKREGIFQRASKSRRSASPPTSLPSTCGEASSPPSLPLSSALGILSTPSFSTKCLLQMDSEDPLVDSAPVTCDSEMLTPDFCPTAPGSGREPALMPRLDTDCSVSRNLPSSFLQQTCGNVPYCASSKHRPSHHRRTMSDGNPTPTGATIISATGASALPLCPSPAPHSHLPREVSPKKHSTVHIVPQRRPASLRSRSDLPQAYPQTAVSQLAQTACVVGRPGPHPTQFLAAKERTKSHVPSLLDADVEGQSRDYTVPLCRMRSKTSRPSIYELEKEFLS

Chain of protein kinases (human kinome) (Homo sapiens, UniProt Q5S007) (Q5S007 whole entry): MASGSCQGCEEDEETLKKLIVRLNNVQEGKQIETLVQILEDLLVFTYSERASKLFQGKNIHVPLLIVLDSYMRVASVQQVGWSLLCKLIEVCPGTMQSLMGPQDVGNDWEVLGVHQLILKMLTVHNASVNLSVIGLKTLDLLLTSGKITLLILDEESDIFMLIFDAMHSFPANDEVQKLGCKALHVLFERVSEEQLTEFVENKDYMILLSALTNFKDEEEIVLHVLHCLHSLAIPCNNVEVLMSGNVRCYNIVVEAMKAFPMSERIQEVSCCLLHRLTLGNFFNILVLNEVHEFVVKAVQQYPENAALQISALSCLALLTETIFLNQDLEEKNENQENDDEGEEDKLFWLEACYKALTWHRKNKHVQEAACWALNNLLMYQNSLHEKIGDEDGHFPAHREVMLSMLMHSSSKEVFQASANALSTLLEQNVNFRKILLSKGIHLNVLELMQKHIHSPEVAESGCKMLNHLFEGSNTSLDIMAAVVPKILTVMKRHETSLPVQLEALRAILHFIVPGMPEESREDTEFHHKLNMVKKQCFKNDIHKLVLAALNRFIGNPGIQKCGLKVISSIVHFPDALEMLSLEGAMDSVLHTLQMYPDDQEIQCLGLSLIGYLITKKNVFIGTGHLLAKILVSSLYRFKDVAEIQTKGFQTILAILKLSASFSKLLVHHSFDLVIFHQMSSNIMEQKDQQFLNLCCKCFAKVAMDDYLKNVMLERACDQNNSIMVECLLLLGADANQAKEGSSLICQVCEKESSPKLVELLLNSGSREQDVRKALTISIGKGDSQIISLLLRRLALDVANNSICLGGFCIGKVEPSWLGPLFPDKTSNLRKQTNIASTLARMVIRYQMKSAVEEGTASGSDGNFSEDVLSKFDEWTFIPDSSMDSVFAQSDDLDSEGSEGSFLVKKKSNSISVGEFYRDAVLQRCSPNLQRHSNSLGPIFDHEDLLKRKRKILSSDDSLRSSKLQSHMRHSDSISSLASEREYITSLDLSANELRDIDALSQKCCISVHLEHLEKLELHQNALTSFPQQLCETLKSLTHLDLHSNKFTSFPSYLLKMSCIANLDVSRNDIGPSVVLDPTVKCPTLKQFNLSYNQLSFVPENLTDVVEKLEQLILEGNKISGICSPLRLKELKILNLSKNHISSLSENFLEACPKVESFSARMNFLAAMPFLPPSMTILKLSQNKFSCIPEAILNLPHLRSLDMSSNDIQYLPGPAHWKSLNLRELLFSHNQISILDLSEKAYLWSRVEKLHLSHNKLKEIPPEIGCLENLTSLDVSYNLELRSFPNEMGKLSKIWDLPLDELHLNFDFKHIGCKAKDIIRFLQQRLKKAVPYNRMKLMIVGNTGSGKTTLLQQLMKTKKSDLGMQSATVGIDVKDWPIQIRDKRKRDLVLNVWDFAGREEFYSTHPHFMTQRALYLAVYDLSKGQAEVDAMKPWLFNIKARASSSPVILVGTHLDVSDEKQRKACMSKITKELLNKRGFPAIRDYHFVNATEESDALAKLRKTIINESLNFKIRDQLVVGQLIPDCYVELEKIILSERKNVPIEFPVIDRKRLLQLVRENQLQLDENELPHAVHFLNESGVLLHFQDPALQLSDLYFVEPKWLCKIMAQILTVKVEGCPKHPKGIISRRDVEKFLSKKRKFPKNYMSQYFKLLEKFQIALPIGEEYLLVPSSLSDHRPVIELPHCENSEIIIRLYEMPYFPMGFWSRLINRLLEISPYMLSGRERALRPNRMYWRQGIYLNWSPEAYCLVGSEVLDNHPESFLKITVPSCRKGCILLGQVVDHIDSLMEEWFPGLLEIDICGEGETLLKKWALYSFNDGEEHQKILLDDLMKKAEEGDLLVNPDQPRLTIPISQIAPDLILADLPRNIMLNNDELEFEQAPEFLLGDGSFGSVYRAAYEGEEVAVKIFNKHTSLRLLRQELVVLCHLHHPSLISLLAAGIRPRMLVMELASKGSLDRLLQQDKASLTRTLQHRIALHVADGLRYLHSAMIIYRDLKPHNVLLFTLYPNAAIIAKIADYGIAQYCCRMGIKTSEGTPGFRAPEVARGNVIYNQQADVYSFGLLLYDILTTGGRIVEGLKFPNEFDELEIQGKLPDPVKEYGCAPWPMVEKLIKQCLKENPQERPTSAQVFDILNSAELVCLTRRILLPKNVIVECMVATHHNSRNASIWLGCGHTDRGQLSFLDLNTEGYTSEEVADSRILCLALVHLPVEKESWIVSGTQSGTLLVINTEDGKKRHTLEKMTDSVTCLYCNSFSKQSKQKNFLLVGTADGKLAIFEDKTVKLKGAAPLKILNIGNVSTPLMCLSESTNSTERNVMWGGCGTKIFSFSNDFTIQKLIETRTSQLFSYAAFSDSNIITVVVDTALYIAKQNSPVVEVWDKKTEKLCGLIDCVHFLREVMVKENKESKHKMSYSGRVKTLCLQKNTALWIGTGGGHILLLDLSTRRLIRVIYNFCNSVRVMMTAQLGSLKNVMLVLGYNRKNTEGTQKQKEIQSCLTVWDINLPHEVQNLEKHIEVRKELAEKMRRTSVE
Chain of protein kinases (human kinome) (Homo sapiens, UniProt Q13882) (Q13882 whole entry): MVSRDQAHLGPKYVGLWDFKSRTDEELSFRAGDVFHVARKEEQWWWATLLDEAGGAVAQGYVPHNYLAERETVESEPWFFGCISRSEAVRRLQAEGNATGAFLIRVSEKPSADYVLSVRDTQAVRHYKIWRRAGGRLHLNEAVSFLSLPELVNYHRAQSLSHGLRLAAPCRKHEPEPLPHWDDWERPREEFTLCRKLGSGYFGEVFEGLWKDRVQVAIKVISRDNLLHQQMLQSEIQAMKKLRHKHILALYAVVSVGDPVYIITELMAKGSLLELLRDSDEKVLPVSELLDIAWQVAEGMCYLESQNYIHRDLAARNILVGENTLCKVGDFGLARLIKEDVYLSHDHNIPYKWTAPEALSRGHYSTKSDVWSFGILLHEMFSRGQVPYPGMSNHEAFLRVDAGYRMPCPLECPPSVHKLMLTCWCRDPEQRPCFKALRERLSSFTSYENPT
Chain of protein kinases (human kinome) (Homo sapiens, UniProt Q8N165) (Q8N165 whole entry): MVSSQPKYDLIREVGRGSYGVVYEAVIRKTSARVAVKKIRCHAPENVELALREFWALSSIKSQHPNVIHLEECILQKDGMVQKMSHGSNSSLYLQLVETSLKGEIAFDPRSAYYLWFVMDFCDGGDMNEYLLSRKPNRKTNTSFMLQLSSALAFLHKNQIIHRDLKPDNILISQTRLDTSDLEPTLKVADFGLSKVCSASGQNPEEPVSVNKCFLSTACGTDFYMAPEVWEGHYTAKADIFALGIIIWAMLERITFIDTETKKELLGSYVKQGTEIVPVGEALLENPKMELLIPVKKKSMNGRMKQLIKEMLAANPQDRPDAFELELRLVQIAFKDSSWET

On to `Cc1ccc(NC(=O)c2cccc(C(F)(F)F)c2)cc1N1Cc2cnc(Nc3ccc(N4CCN(Cc5cn(CCCCCOc6cccc7c6C(=O)N(C6CCC(=O)NC6=O)C7=O)nn5)CC4)nc3)nc2N(C)C1=O` (stereo not shown) [DB0646, N-(3-(7-((6-(4-((1-(5-((2-(2,6-Dioxopiperidin-3-yl)-1,3-dioxoisoindolin-4-yl)oxy)pentyl)-1H-1,2,3-triazol-4-yl)methyl)piperazin-1-v)pyridin-3-yl)amino)-1-methyl-2-oxo-1,4-dihydropyrimido[4,5-d]pyrimidin-3(2H)-yl)-4-methylphenyl)-3-(trifluoromethyl)benzamide], for which the “logFC of LRRK2 (Q5S007)” value in experiment [1] (Experiment wp160, 2 hr) is listed as −1.181; in experiment [1] (experiment wp160, 1 hr) it was −1.165; in experiment [1] (experiment wp160, 4 hr), −1.307; in experiment [1] (experiment wp160, 8 hr), −1.747. Moreover, the logFC in experiment [1] (experiment wp160, 2 hr) was −1.181; in experiment [1] (experiment wp160, 4 hr) it was −1.307; in experiment [1] (experiment wp160, 1 hr) it was −1.165; in experiment [1] (experiment wp160, 8 hr), −1.747; in experiment [2] (experiment wp107) it was −0.353; in experiment [2] (experiment wp117), −0.3503. The compound further had a logFC in experiment [2] (experiment wp160, 8 hr) of −0.4714.
For `Cc1ccc(NC(=O)c2cccc(C(F)(F)F)c2)cc1N1Cc2cnc(Nc3ccc(N4CCN(CCCOc5cccc6c5C(=O)N(C5CCC(=O)NC5=O)C6=O)CC4)nc3)nc2N(C)C1=O` (stereo not shown) [DB0662], in experiment [3], the “logFC of PDIK1L (Q8N165)” value is given as −0.3272 and the logFC is given as −0.3272.
With `Cc1ccc(NC(=O)c2cccc(C(F)(F)F)c2)cc1N1Cc2cnc(Nc3ccc(N4CCN(CCCCC(=O)N[C@H](C(=O)N5C[C@H](O)C[C@H]5C(=O)N[C@@H](C)c5ccc(-c6scnc6C)cc5)C(C)(C)C)CC4)nc3)nc2N(C)C1=O` [DB1113], in experiment [3], the “logFC of PDIK1L (Q8N165)” value is −0.5334 and the logFC was −0.5334.
As to `Cc1ncsc1-c1ccc([C@H](C)NC(=O)[C@@H]2C[C@@H](O)CN2C(=O)[C@@H](NC(=O)CCOCCOCCN2CCN(c3ccc(Nc4ncc(Cl)c(Nc5ccccc5S(=O)(=O)C(C)C)n4)cc3)CC2)C(C)(C)C)cc1` [FMF.06.098.1], in experiment [4], the “logFC of EPHA1 (P21709)” value is given as −0.422 and the “logFC EPHA1” value is recorded as −0.422. In experiment [5], the “logFC PTK6 (Q13882)” value was −0.4401 and the logFC is reported as −0.4401.
For the compound `Cc1ccc(C(=O)Nc2ccc(CN3CCN(CCCOCCOCCOCCNC(=O)COc4cccc5c4C(=O)N(C4CCC(=O)NC4=O)C5=O)CC3)c(C(F)(F)F)c2)cc1C#Cc1cnc2cccnn12` (stereo not shown) [SB1.G.187], in experiment [4], the “logFC of EPHA1 (P21709)” value is on record as −0.3552 and the “logFC EPHA1” value is listed as −0.3552.
Take `CC(C)S(=O)(=O)c1ccccc1Nc1nc(Nc2ccc(N3CCN(CCOCCNC(=O)CNc4cccc5c4C(=O)N(C4CCC(=O)NC4=O)C5=O)CC3)cc2)ncc1Cl` (stereo not shown) [SK.3.91]: the logFC in experiment [6] (experiment wp103) is −0.4564; in experiment [6] (experiment wp103, direction down), −0.4564; in experiment [6] (experiment wp105) it was −0.3908; in experiment [6] (experiment wp105, direction down) it was −0.3908; in experiment [6] (experiment wp107), −0.6368; in experiment [6] (experiment wp107, direction down), −0.6368. Moreover, the logFC in experiment [6] (experiment wp133, 1 hr) is listed as −0.4397; in experiment [6] (experiment wp133, 1 hr, direction down) it was −0.4397; in experiment [6] (experiment wp133, 2 hr), −0.4411; in experiment [6] (experiment wp133, 2 hr, direction down), −0.4411; in experiment [6] (experiment wp133, 4 hr), −0.7303; in experiment [6] (experiment wp133, 4 hr, direction down), −0.7303. The logFC was −0.4294 in experiment [6] (experiment wp160, 4 hr); −0.4294 in experiment [6] (experiment wp160, 4 hr, direction down); −0.4171 in experiment [5]; −0.8447 in experiment [1] (experiment wp160, 1 hr); −0.4685 in experiment [7] (experiment wp133, 4 hr). Besides, the “logFC PTK6 (Q13882)” value in experiment [5] is −0.4171. The “logFC of LRRK2 (Q5S007)” value in experiment [1] (experiment wp160, 1 hr) is listed as −0.8447. Also, the “logFC MAP3K21 (Q5TCX8)” value in experiment [7] (experiment wp133, 4 hr) was −0.4685.
On to `CC(C)S(=O)(=O)c1ccccc1Nc1nc(Nc2ccc(N3CCN(CCOCCOCCNC(=O)CNc4cccc5c4C(=O)N(C4CCC(=O)NC4=O)C5=O)CC3)cc2)ncc1Cl` (stereo not shown) [TL12.186], for which the logFC in experiment [6] (experiment wp131) is given as −0.3783; in experiment [6] (experiment wp131, direction down), −0.3783; in experiment [7] (experiment wp131), −0.969. Besides, the “logFC MAP3K21 (Q5TCX8)” value in experiment [7] (experiment wp131) was −0.969.
In the case of `Nc1ncc(-c2ccc(S(=O)(=O)N(CCCNC(=O)CCOCCOCCOCCOCCOCCNc3cccc4c3C(=O)N(C3CCC(=O)NC3=O)C4=O)C3CC3)cc2)cc1-c1ccc2c(c1)CCNC2=O` (stereo not shown) [WH.10417.099], the logFC in experiment [2] (experiment wp056) was −0.5009; in experiment [2] (experiment wp103), −0.5201; in experiment [2] (experiment wp105), −0.3715; in experiment [2] (experiment wp107), −0.5734.
